# Source: a melting point compilation (Tetko et al.; mined from patent text by program, amines drawn as free bases though some values may be those of a salt)
row,Structure (SMILES),melting point
1,O=C1NC(=O)C(Cc2ccc(OCC34CC5CC(CC(C5)C3)C4)cc2)S1 (centres undefined),188 to 191 °C
2,Cc1cc(Br)ccc1C(=O)NCC(F)(F)F,124 to 126 °C
3,OC1CSC(Oc2cccc(-c3ccncc3Cl)c2)C(O)C1O (centres undefined),158 to 161 °C
4,CCCCCCCCCCCCOc1ccccc1O,46 °C
5,c1csc(-c2nc(COc3ccc(CCCn4ccnc4)cc3)cs2)c1,76 to 77 °C
6,COc1ccc2c(c1)c(CC(=O)OCCNC(=O)c1cccnc1)c(C)n2C(=O)c1ccc(Cl)cc1,123 to 125 °C
7,Cc1c(-c2ccccc2)c(N2CC[C@H](N(C)C)C2)c2oc(N3CCOCC3)nc2c1C#N,215 to 217 °C
8,Oc1ccc(-c2cccnc2)cc1,195 °C
9,COC(=O)c1cc(-c2ccc(SC)cc2)nn(CC2CC2)c1=O,100 to 102 °C
10,CC(=O)N1c2ccc(N(C)C)cc2Sc2cc(N(C)C)ccc21,137 °C
11,Cc1cccc(N2Cc3nc(CO)nn3-c3ccccc32)c1C,186 to 194 °C
12,CC1(C)CC(c2ccccn2)c2cc(C(=O)O)ccc2O1 (centres undefined),207 to 208 °C
13,C1=CNC(C(c2ccccc2)c2ccccc2)=C(NCc2ccccc2)C=C1,186 to 187 °C
14,CC[C@H](C)COc1ccc(-n2cc(C(=O)O)cn2)cc1C#N,184 to 186 °C
15,CNC(=S)NCCCNc1ccccn1,134 to 135 °C
16,C[C@H](CO)NC1=NS(=O)(=O)c2sc(Cl)cc2N1,203 to 204 °C
17,CSc1ccc(-c2[nH]c3cccc4c3c2CCNC4=O)cc1,250 to 251 °C
18,CC(C)c1ccc(CCNc2ncnc3c(F)cccc23)cc1,170 to 172 °C
19,C=CCOc1ccc(C)c2c1C(C)(C)C(=O)N2,153 to 155 °C
20,CS(=O)(=O)c1ccc(-c2ccc(C(F)(F)F)n2-c2ccc(F)cc2)cc1,136 to 139 °C
21,Cc1cc2c(-c3ccccc3)nc(N3CCN(CC(O)c4ccc(F)cc4)CC3)nc2s1 (centres undefined),180 to 182 °C
22,CCCC1CCC(/C(F)=C(\F)c2ccc(OCC)c(F)c2F)CC1 (centres undefined),60 °C
23,"CCCN1c2ccc3c(c2CC1C(N)=O)CC(N)CC3 (single isomer, unassigned; (+))",230 °C

row,Structure (SMILES),melting point
1,COc1ccc(S(=O)(=O)n2c(CCC(=O)O)cc3cc(Cl)ccc32)cc1,95 to 98 °C
2,CC(C)C(Nc1ccc(C(F)(F)F)cc1)C(N)=O (centres undefined),93 to 94 °C
3,N#Cc1ccccc1Oc1ccc(-c2cn(C3CCOC3)c3ncnc(N)c23)cc1 (centres undefined),201 to 203 °C
4,CCOC1=CC(=O)N([C@@H]2c3cc(C#N)ccc3OC(C)(C)[C@H]2O)C1,210 °C
5,O=S(=O)(O)c1ccc(N(Cc2ccc(F)cc2)Cc2ccc(Cl)cc2)cc1,> 250 °C
6,Cc1ccc(S(=O)(=O)NC(=O)c2nc(Cl)c(Cl)[nH]2)cc1,238 °C
7,O=C1c2ccccc2C(=O)N1COc1ccncc1,129 to 131 °C
8,O=C(O)CNC(=O)c1cn2nc(NCCCN3CCC(OC(c4ccccc4)c4ccccc4)CC3)ccc2n1,171 °C
9,COCCOCc1c(CN(C)CC(O)c2cccc(OC)c2)sc2c(=O)c(C(=O)NCc3ccc(Cl)cc3)cn(C)c12 (centres undefined),135 to 138 °C
10,CC(C)(C)n1ncc(OCc2ccc(OCC(F)(F)C(F)F)nc2)c(Cl)c1=O,112 to 118 °C
11,COc1ccc(C2(O)CCN(c3ccc(OC)nc3-c3ccc(OC(F)(F)F)cc3)CC2)cc1,100 to 112 °C
12,COc1cccc(CC2CCN(C(=O)C(=O)Nc3ccc4[nH]c(=O)oc4c3)CC2)c1,110 to 115 °C
13,CCOC(=O)c1ncc2[nH]c3ccc(N4CCCS4(=O)=O)cc3c2c1C,230 °C
14,CCOC(=O)c1ccc(-c2cn3cc(C)ccc3n2)cc1,228 to 230 °C
15,Cc1cnc2c(NC(=O)c3c(Cl)cccc3Cl)cccc2c1N1CCN(C)C1=O,288 °C
16,Cc1c(NCC(C)(C)NC(=O)OC(C)(C)C)c([N+](=O)[O-])c2nnnn2c1C,153 to 155 °C
17,COC(=O)CCCC(=O)c1ccccc1C=CBr,52 to 55 °C
18,Cc1cc2n(C)c(=O)c3cnc(Cl)cc3n2n1,254 °C
19,Cc1nc(-n2cnn(Cc3ccc(F)cc3)c2=O)sc1C(=O)NCc1cccnc1,178 to 179 °C
20,CC(C)(C)c1cc(SCCSCC(=O)O)cc(C(C)(C)C)c1O,86 °C
21,O=C(OCc1ccccc1)[C@@H]1COC(c2ccccc2OCc2ccccc2)=N1,69 to 71 °C
22,CCCCCCCCC1(CCCCCCCC)c2cc([N+](=O)[O-])ccc2-c2ccc([N+](=O)[O-])cc21,69 to 73 °C
23,CCOC(=O)c1cc2cc(-c3ccc(OC(F)(F)F)cc3)ccc2n1Cc1ccc(C)cc1,77 to 78 °C

row,Structure (SMILES),melting point
1,NS(=O)(=O)c1cccc(NC(=O)c2cnn3c(C(F)(F)F)cc(-c4ccc(C(F)(F)F)c(Cl)c4)nc23)c1,287 °C
2,Nc1nc2cccnc2c2c1nc(O)n2CC1CCOCC1,250 to 260 °C
3,C=CCSc1cc(C(=O)O)cc(N)c1C(=O)c1ccccc1,152 to 154 °C
4,N#Cc1cccc(NC(=O)c2ccc3ccccc3c2)c1,138 to 140 °C
5,CC(C)(C(Cl)c1ccc2c(c1)OCO2)[N+](=O)[O-] (centres undefined),63 to 66 °C
6,CC(=O)Nc1ccc(SSc2ccc(NC(C)=O)cc2C(=O)NC(CC(C)C)C(=O)O)c(C(=O)NC(CC(C)C)C(=O)O)c1 (centres undefined),241 to 242 °C
7,COc1ccc2c3ccnc(C)c3n(Cc3ccccc3)c2c1,131 to 133 °C
8,CC(c1ccnc(C#N)c1)C(O)(Cn1cncn1)c1ccc(F)cc1F (centres undefined),188 to 189 °C
9,NC(=S)NN=C(CCCCl)c1ccc(Cl)cc1,125 to 126 °C
10,COc1ccc(C(=O)c2c(C)n(C(C)=O)c(=O)n2C(C)=O)cc1,123 to 125 °C
11,COc1cc2c(cc1Nc1ncc(Cl)c(Nc3ccccc3S(=O)(=O)N(C)C)n1)CCN(CC(=O)N1CCC1)CC2,75 to 87 °C
12,COc1ccc(-c2cc(Oc3c(C)cc(C)cc3C)nc(C)n2)cc1OC,122 to 125 °C
13,COc1ccc(-n2nnc(-c3ccc(F)cc3F)c2N)cc1,152 to 156 °C
14,CCCn1c(CCOC)nc2c(N)nc3cc(OC4CCN(C(=O)NC(C)C)CC4)ccc3c21,176 to 179 °C
15,CCCCOc1c(CNC(=O)OC(C)(C)C)n(CC(C)C)c(=O)c2ccc(-c3nc(C#N)cs3)cc12,160 to 161 °C
16,CS(=O)(=O)C(Cl)=C(Cl)C#N,100 °C
17,CCCc1c(OCCCCC#N)ccc(C(=O)c2ccccc2OC)c1O,85 to 86.5 °C
18,CCOC(=O)c1ccc(N=C(Nc2ccc(C(=O)OCC)cc2)c2cccc(Cl)c2)cc1,160 to 170 °C
19,CC12C=CCC=C1CCC1C2C(O)CC2(C)C(CCO)=CCC12 (centres undefined),213 to 215 °C
20,CCCN1CCCC(NC(=O)C(Cc2ccc(OCc3ccccc3)cc2)NC(=O)C(CC(C)C)N(C)Cc2ccc(N(C)C)cc2)C1 (centres undefined),131 to 133 °C
21,CNC(=O)Nc1snc(S(C)=O)c1C#N (centres undefined),241 °C
22,CCC(C)(C)OC(=O)NC(C)(Cc1c[nH]c2ccccc12)C(=O)NC(Cc1cccs1)C(N)=O (centres undefined),187 to 192 °C
23,CC(C)CNC(=O)c1ccc(-c2ccc3nnn(Cc4ccc5ncccc5c4)c3n2)cc1F,158 to 160 °C
